{
  "source": "patent US8563717B2",
  "about": "“Adenine derivatives” (GlaxoSmithKline LLC, priority 2008, dated 2013)",
  "system": "Interferon-α",
  "assay": "Induction of Interferon-α using cryopreserved human PBMCs",
  "type": "cell-based",
  "conditions": "PBMC, 24 h incubation, normalised to 1 uM resiquimod, read-out: mean pEC50 for induction of IFN-α (converted)",
  "procedure": "Assay for the Induction of Interferon-α Using Cryopreserved Human Peripheral Blood Mononuclear Cells (PBMCs)\nCompounds were dissolved in DMSO. Serial 2-fold dilutions with DMSO were prepared and 0.25 μl dispensed into 384-well clear Greiner polypropylene plates.\nBlood samples of up to 200 ml were obtained from healthy human donors. Whole blood in 25 ml volumes was overlaid onto 15 ml Ficoll gradients in Leucosep tubes, and centrifuged at 1000 g for 20 min. Cells in the band at the plasma/histopaque interface were carefully removed and washed twice with PBS (centrifuged at 400 g for 5 min to harvest). The final pellet was resuspended in freezing medium (90% Heat-inactivated serum, 10% DMSO) to a cell concentration of 4×10^7 cells/ml. The resuspended cells were then cryopreserved (frozen) using a rate controlled freezer, and stored at −140° C. for up to 4 months.\nImmediately prior to assay, vials of cryopreserved (frozen) PBMCs were thawed rapidly in a water bath at 37° C. A 1:10 dilution of the cells in trypan blue was prepared and counted. The PBMCs were then diluted in growth media [RPMI 1640 containing 10% fetal calf serum (invitrogen), Penicillin+[…] (Gibco cat. #25030-024, 1:50), L-Glutamine 2 mM, and 1000 units/ml recombinant human IFN-gamma (Preprotech catalogue #300-02)] to a density of 1×10^6 cells/ml, and 50 ul/well dispensed to 384-well clear Greiner polypropylene plates containing 0.25 μl DMSO or test compound in 0.25 μl DMSO. […] Plates were incubated for 24 h at 37° C. in 5% CO2.\nA multi-isoform immunoassay was used to quantify IFN-α in PBMC supernatants. Rabbit polyclonal antibody against human IFN-α (catalogue number 31101, Stratech Scientific) was diluted 1:10000 in assay buffer (RPMI 1640 containing 10% fetal calf serum, Invitrogen) and 20 μl was added to each well of an MSD (Meso-Scale Discovery) single small-spot 384-well GAR (goat anti-rabbit antibody coated) plate. The plate was incubated for 1 hour at room temperature with vigorous shaking. Following three washes with PBS, 20 μl of cell supernatant were added to each well of the plate. The plate was then incubated for 1 hour at room temperature with vigorous shaking. A pair of monoclonal antibodies to IFN-α (catalogue numbers 21100 and 21112, Stratech Scientific) were labelled with sulfo-TAG (MSD), diluted 1:1000 in assay buffer and 20 μl added to each well of the plate. The plate was further incubated for 1 hour at room temperature with vigorous shaking. Following three washes with PBS, 30 μl of x2 T buffer (MSD) was added to each well and the plate was read on an MSD Sector 6000 plate reader.\nData were normalised to internal plate controls of 1 uM resiquimod (n=16) and DMSO (n=16). pEC50 values were derived by 4-parameter curve fit with IRLS in ActivityBase, from 11-point, two-fold serial dilution of test compounds.",
  "note": "Where a name gives a salt, the structure may show the parent alone.",
  "data": [
    {"compound": "CCCCOc1nc(N)c2[nH]c(=O)n(CCC3CCN(C(CC)CC)CC3)c2n1", "note": "[Example 84, 6-Amino-2-(butyloxy)-9-{2-[1-(1-ethylpropyl)-4-piperidinyl]ethyl}-7,9-dihydro-8H-purin-8-one]", "values": [
      {"measurement": "EC50", "value": "< 1580", "unit": "nM"}
    ]},
    {"compound": "CCC[C@H](C)Oc1nc(N)c2[nH]c(=O)n(CC3CCN(C(C)C)CC3)c2n1", "note": "[Example 79, 6-Amino-2-{[(1S)-1-methylbutyl]oxy}-9-{[1-(1-methylethyl)-4-piperidinyl]methyl}-7,9-dihydro-8H-purin-8-one]", "values": [
      {"measurement": "EC50", "value": "< 1580", "unit": "nM"}
    ]},
    {"compound": "CCCCOc1nc(N)c2[nH]c(=O)n(CCCC3CCCCN3C(C)C)c2n1", "note": "(stereo not shown) [Example 16, 6-Amino-2-(butyloxy)-9-{3-[1-(1-methylethyl)-2-piperidinyl]propyl}-7,9-dihydro-8H-purin-8-one]", "values": [
      {"measurement": "EC50", "value": "< 1580", "unit": "nM"}
    ]},
    {"compound": "CCC[C@H](C)Oc1nc(N)c2[nH]c(=O)n(CCCC3CCCN(CC)C3)c2n1", "note": "(stereo partly drawn) [Example 54, 6-Amino-9-[3-(1-ethyl-3-piperidinyl)propyl]-2-{[(1S)-1-methylbutyl]oxy}-7,9-dihydro-8H-purin-8-one]", "values": [
      {"measurement": "EC50", "value": "< 1580", "unit": "nM"}
    ]},
    {"compound": "CCCCOc1nc(N)c2[nH]c(=O)n(CC3CCCN(CCC(C)C)C3)c2n1", "note": "(stereo not shown) [Example 27, 6-Amino-2-(butyloxy)-9-{[1-(3-methylbutyl)-3-piperidinyl]methyl}-7,9-dihydro-8H-purin-8-one]", "values": [
      {"measurement": "EC50", "value": "< 1580", "unit": "nM"}
    ]},
    {"compound": "CCCCOc1nc(N)c2[nH]c(=O)n(CCCC3CCCCN3CCCC)c2n1", "note": "(stereo not shown) [Example 17, 6-Amino-2-(butyloxy)-9-[3-(1-butyl-2-piperidinyl)propyl]-7,9-dihydro-8H-purin-8-one]", "values": [
      {"measurement": "EC50", "value": "< 1580", "unit": "nM"}
    ]},
    {"compound": "CCCCOc1nc(N)c2[nH]c(=O)n(CCC3CCCN(C4CCCC4)C3)c2n1", "note": "(stereo not shown) [Example 36, 6-Amino-2-(butyloxy)-9-[2-(1-cyclopentyl-3-piperidinyl)ethyl]-7,9-dihydro-8H-purin-8-one]", "values": [
      {"measurement": "EC50", "value": "< 1580", "unit": "nM"}
    ]},
    {"compound": "CCCCOc1nc(N)c2[nH]c(=O)n(CCCCC3CCNCC3)c2n1", "note": "[Example 107, 6-Amino-2-(butyloxy)-9-[4-(4-piperidinyl)butyl]-7,9-dihydro-8H-purin-8-one]", "values": [
      {"measurement": "EC50", "value": "< 1580", "unit": "nM"}
    ]},
    {"compound": "CCCCOc1nc(N)c2[nH]c(=O)n(CCC3CCN(C4CCCCC4)CC3)c2n1", "note": "[Example 88, 6-Amino-2-(butyloxy)-9-[2-(1-cyclohexyl-4-piperidinyl)ethyl]-7,9-dihydro-8H-purin-8-one]", "values": [
      {"measurement": "EC50", "value": "< 1580", "unit": "nM"}
    ]},
    {"compound": "CCCCOc1nc(N)c2[nH]c(=O)n(CCCCCC3CCCN(CC)C3)c2n1", "note": "(stereo not shown) [Example 68, 6-Amino-2-(butyloxy)-9-[5-(1-ethyl-3-piperidinyl)pentyl]-7,9-dihydro-8H-purin-8-one]", "values": [
      {"measurement": "EC50", "value": "< 1580", "unit": "nM"}
    ]},
    {"compound": "CCCCOc1nc(N)c2[nH]c(=O)n(CCC3CCN(CC4CCCC4)CC3)c2n1", "note": "[Example 87, 6-Amino-2-(butyloxy)-9-{2-[1-(cyclopentylmethyl)-4-piperidinyl]ethyl}-7,9-dihydro-8H-purin-8-one]", "values": [
      {"measurement": "EC50", "value": "< 1580", "unit": "nM"}
    ]},
    {"compound": "CCCCOc1nc(N)c2[nH]c(=O)n(CCC3CCCCN3)c2n1", "note": "(stereo not shown) [Example 11, 6-Amino-2-(butyloxy)-9-[2-(2-piperidinyl)ethyl]-7,9-dihydro-8H-burin-8-one]", "values": [
      {"measurement": "EC50", "value": "< 1580", "unit": "nM"}
    ]},
    {"compound": "CCCCNc1nc(N)c2[nH]c(=O)n(CCCCC3CCNCC3)c2n1", "note": "[Example 120, 6-Amino-2-(butylamino)-9-[4-(4-piperidinyl)butyl]-7,9-dihydro-8H-purin-8-one]", "values": [
      {"measurement": "EC50", "value": "< 1580", "unit": "nM"}
    ]},
    {"compound": "CCCCOc1nc(N)c2[nH]c(=O)n(CCCCCC3CCN(CC)CC3)c2n1", "note": "[Example 123, 6-Amino-2-(butyloxy)-9-[5-(1-ethyl-4-piperidinyl)pentyl]-7,9-dihydro-8H-purin-8-one]", "values": [
      {"measurement": "EC50", "value": "< 1580", "unit": "nM"}
    ]},
    {"compound": "CCCCOc1nc(N)c2[nH]c(=O)n(CC3CCNCC3)c2n1", "note": "[Example 3, hydrochloride]", "values": [
      {"measurement": "EC50", "value": "< 1580", "unit": "nM"}
    ]},
    {"compound": "CCCCOc1nc(N)c2[nH]c(=O)n(CCCCC3CCN(C(C)C)CC3)c2n1", "note": "[Example 109, 6-Amino-2-(butyloxy)-9-{4-[1-(1-methylethyl)-4-piperidinyl]butyl}-7,9-dihydro-8H-purin-8-one]", "values": [
      {"measurement": "EC50", "value": "< 1580", "unit": "nM"}
    ]}
  ]
}
